Measurements: paper PMC12722308, “A phase 1 study of orally administered 5-fluoro-2’-deoxycytidine with tetrahydrouridine in patients with refractory solid tumors” (Cancer Chemotherapy and Pharmacology, 2025)

Legend:
[1] = test system: p16-expressing cytokeratin-positive (CK+) CTCs; experiment: CellSearch analysis of CTC p16 expression, CK+ CTCs; format: in vivo, human; conditions: 23 of 30 evaluable patients; oral FdCyd + THU
Description: Each blood specimen for CTC analysis (7.5 mL) was collected into a 10-mL CellSave preservative tube (Menarini Silicon Biosystems). Specimens were collected pre-treatment and then 6 h after THU administration on C1D1; prior to THU administration on […] and either C1D8 or […] (at the end of the first round of drug administration); on day 1 of cycle 2 and all subsequent cycles; and optionally at time of progression. Blood sample collection for CTC analysis was performed relative to the morning dose of THU for patients on the BID dose levels (DL10-11). CTC samples were processed and analyzed for p16, cytokeratin, and vimentin as described previously. Serial baseline blood specimens (C1D1 pre, C1D1 post, and […]) were obtained in light of baseline variability in CTC counts and p16 expression, and patients were considered assessable for cytokeratin-positive (CK^+) CTC p16 response if at least one of these baseline specimens (i.e., C1D1 pre, C1D1 post, and/or […]) and at least one post-treatment specimen (collected C2D1 or later) each contained ≥ 6 CTCs, as described. For patients with multiple baseline specimens, the specimen with the highest frequency of p16-positive CTCs was considered “baseline,” as described.

[2] = test system: p16-expressing vimentin-positive (V+) CTCs; set-up: method as in PMID 32314030; conditions: intravenously administered FdCyd; 6 of 12; cited from earlier work
CDKN2A = experiment: Tumor CDKN2A promoter methylation from genome-wide methylation sequencing; format: in vivo, human; conditions: of 6 expansion cohort patients with both CDKN2A and p16 IHC data
Description: Tumor biopsy cores collected at baseline and C1W3 underwent nucleic acid extraction using the Qiagen AllPrep FFPE Nucleic acid Extraction kit and QiaCube automated platform. Extractions were performed on 1–2 biopsy cores per patient per time point; for specimens with low tumor content, tumor microdissection was performed prior to extraction. Genome-wide DNA methylation sequencing on the isolated DNA was performed by Zymo Research using Methyl-MiniSeq Genome-Wide Bisulfite Sequencing methodology. Sequence reads from bisulfite-treated Classic RRBS libraries were identified using standard Illumina base calling software. Raw FASTQ files were trimmed of adapter, filled-in nucleotides, and low-quality base calls using TrimGalore 0.6.4. […] Methylated and unmethylated read totals for each CpG site were called using Bismark Methylation Extractor. The methylation level of each sampled cytosine was estimated as the number of reads reporting a C, divided by the total number of reads reporting a C or T.
All statistical analyses were performed in R. Differentially methylated CpG sites (DMCs)—both hypo- and hyper-methylated—were identified with the R package DSS [14] using the two-sided Wald test for beta-binomial distributions with smoothing step as recommended. […] Regions with many significant DMCs were detected as differentially methylated regions (DMRs) using DSS function callDMR. […]

DNA methylation = test system: DNA methylation; set-up: method as in PMID 2425957; conditions: preclinical data; 1 µM = 245 ng/mL; cited from earlier work
[3] = Urinary excretion by LC-MS/MS; format: in vivo, human
Description: Blood specimens for PK analysis were collected on Cycle 1 Day 1 (C1D1) prior to THU administration and then at 15, 30, and 45 min and 1, 2, 3, 4, 5, and 6 h after THU administration, as well as on C1D2 and C1D3 prior to and 2 h after THU administration. Urine specimens for PK analysis were collected on C1D1 prior to treatment and then at every void from 0 to 24 h after THU administration. All specimens for PK analysis were processed and analyzed by LC-MS/MS as described previously, and Phoenix WinNonlin software was used for data analysis.

Structure (SMILES): Nc1nc(=O)n([C@H]2C[C@H](O)[C@@H](CO)O2)cc1F [FdCyd, 5-fluoro-2’-deoxycytidine]
- Patients with a treatment-associated increase in the proportion of p16+CK+ CTCs [1]: 77%
- Patients with increases in p16-expressing V+ CTCs [2]: 50%
- Patients with treatment-associated decreases in tumor CDKN2A methylation (CDKN2A): Five
- FdCyd concentration giving inhibition of DNA methylation in vitro (DNA methylation): ≥ 1 µM
- FdCyd urinary excretion over 0-24 hours of day 1 ([3]; All FdCyd doses + THU 3000 mg, N=6, geom. mean (geom. SD)): 0.083 (2.2) % dose
- FdCyd urinary excretion over 0-24 hours of day 1 ([3]; All FdCyd doses + THU 6000 mg, N=3, geom. mean (geom. SD)): 0.11 (2.6) % dose
- FdCyd urinary excretion over 0-24 hours of day 1 ([3]; DL5-9: FdCyd 160 mg + THU 3000 mg, N=6, geom. mean (geom. SD)): 0.083 (2.2) % dose
- FdCyd urinary excretion over 0-24 hours of day 1 ([3]; DL10: FdCyd 60 mg + THU 6000 mg, N=2, geom. mean (geom. SD)): 0.15 (3.2) % dose
- FdCyd urinary excretion over 0-24 hours of day 1 ([3]; DL11: FdCyd 80 mg + THU 6000 mg, N=1): 0.058 (-) % dose
